Test [1] has as its system rhythmic bladder contractions. The experiment in a line: Rhythmic bladder contractions in rats (in vivo). Also on record: species or system rat. Particulars: 0.3 mpk, intravenous, female Sprague-Dawley rats; amplitude reduction of bladder contractions. The source says:
[Experimental Example 3] Experiment on Rhythmic Bladder Contractions in Rats (In Vivo)
Female Sprague-Dawley rat was halothane-anesthetized, and a polyethylene catheter was inserted through urethra lay down straight and fixed. Urine in bladder was excreted through the catheter by gently massaging abdomen of the rat, and then removed. A three-way stopcock was connected to the catheter and a pressure transducer was connected to one side of the three-way stopcock to measure pressure, and a syringe was installed at the other side to inject 37° C. of saline solution. The saline solution was slowly injected until regular bladder contractions occurred repeatedly. When regular bladder contractions occurred stably, test compounds were administered intravenously through the tail vein. Inhibitory effect of the test compounds was evaluated by measuring degree of amplitude reduction of bladder contractions.

In test [2] the target is T1, human muscarinic M3 receptor (Homo sapiens (Human), UniProt P20309). The experiment in a line: Binding assay on human muscarinic M3 receptor ([3H]-methyl scopolamine displacement). The conditions noted are these: membranes overexpressing human M3 receptor, Ki from IC50 by Cheng-Prusoff, read-out: Binding Affinity to M3 Receptor, Ki. In short, it runs like this:
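Displacement of [3H]-methyl scopolamine from membranes overexpressing human M3, in Tris-HCl, 25 °C, 120 min; filter-bound radioactivity counted. Nonspecific binding with 5 μM atropine; Ki from IC50 via Cheng-Prusoff.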

The target in test [3] is T1, human muscarinic M3 receptor. The experiment in a line: Antagonism assay on human muscarinic M3 receptor (carbachol-induced intracellular calcium, FLIPR Calcium 5, transfected Cos-7 cells). It counts as cell-based. The conditions noted are these: functional inhibitory constant; carbachol-induced intracellular calcium in Cos-7 cells transfected with human M3 receptor. Here is the method:
[Experimental Example 2] Antagonism Assay on Human Muscarinic M3 Receptor
The antagonism assay for various compounds of the present invention was conducted on antagonism to human M3 receptor in Cos-7 cells that was transfected with plasmid coding human muscarinic M3 receptor. Test compounds in various concentrations were pre-treated to the cells for 3 minutes, and then the changes of intracellular calcium were measured after treating the same with carbachol (i.e. muscarinic receptor agonist). The FLIPR® Calcium 5 assay (Molecular Devices) and Flex3 device (Molecular Devices) were used to measure concentration of calcium. Amounts of calcium before and after carbachol treatment were set as 0% and 100% respectively. Inhibition rates (%) by the compounds for increase in intracellular calcium by carbachol were calculated. The antagonistic potency of the test compounds on human muscarinic M3 receptor was calculated as the functional inhibitory constant (Ki), which can be calculated from concentration (IC50) of compound inhibiting 50% of activity of carbachol according to Cheng and Prusoff equation.

Structures are written as SMILES.

T1 sequence (P20309 whole entry): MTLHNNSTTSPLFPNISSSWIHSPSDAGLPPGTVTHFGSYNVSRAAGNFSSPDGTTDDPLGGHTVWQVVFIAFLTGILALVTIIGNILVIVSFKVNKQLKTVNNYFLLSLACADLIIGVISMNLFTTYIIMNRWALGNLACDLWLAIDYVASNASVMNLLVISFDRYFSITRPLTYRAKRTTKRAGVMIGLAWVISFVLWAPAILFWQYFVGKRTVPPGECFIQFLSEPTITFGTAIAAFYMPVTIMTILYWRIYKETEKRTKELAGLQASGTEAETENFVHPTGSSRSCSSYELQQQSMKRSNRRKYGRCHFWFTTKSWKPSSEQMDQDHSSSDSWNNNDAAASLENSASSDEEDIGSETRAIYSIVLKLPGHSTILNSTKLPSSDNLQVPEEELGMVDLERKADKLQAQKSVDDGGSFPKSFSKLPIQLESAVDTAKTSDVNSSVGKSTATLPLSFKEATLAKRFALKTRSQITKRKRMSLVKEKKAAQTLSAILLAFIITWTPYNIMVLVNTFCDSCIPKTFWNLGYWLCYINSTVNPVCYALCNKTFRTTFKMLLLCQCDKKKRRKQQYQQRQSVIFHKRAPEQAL

What is called Ki is the equilibrium dissociation constant of an inhibitor or competing ligand from its target. `CN1CCCC1COC(=O)Nc1ccccc1-c1ccc(F)cc1` (stereo in doubt) [Example 99, (S)-(1-methylpyrrolidin-2-yl)methyl (4′-fluoro-[1,1′-biphenyl]-2-yl)carbamate]: the “Inhibition of Rhythmic bladder contraction in rats” value (shortened to “Inhibition”) in test [1] was determined as 16.3 ± 1.0%. Moreover, in test [2], the inhibition constant Ki is 8.1 nM.
On to `CN1CCCC1CCOC(=O)Nc1ccccc1-c1ccc(F)cc1` (centres unmarked) [Example 1, 2-(1-methylpyrrolidin-2-yl)ethyl(4′-fluoro-[1,1′-biphenyl]-2-yl)carbamate], for which the “Inhibition” value in test [1] came out at 26.1 ± 5.1%. For the same compound, in test [2], the Ki was 4.42 nM.
As for `CN1CCCC1CCOC(=O)Nc1ccccc1-c1cc(F)c(F)c(F)c1` (centres unmarked) [Example 3, 2-(1-methylpyrrolidin-2-yl)ethyl(3′,4′,5′-trifluoro-[1,1′-biphenyl]-2-yl)carbamate], in test [1], the “Inhibition” value stood at 15.9 ± 0.9%. Besides, in test [2], the inhibition constant Ki came out at 11.6 nM.
As to `CN1CCCC1CCOC(=O)Nc1ccccc1-c1ccccc1` (centres unmarked) [Example 6, 2-(1-methylpyrrolidin-2-yl)ethyl[1,1′-biphenyl]-2-ylcarbamate], the “Inhibition” value in test [1] is on record as 28.5 ± 4.6%. In test [2], the inhibition constant Ki was 2.47 nM.
For `CN1CCCC1CCOC(=O)Nc1ccccc1-c1cc(Cl)cc(Cl)c1` (centres unmarked) [Example 9, 2-(1-methylpyrrolidin-2-yl)ethyl(3′,5′-dichloro-[1,1′-biphenyl]-2-yl)carbamate], the “Inhibition” value in test [1] was determined as 9.6 ± 1.6%. Moreover, the Ki in test [2] amounted to 9.1 nM.
For the compound `CN1CCCC1CCOC(=O)Nc1ccc(F)cc1-c1cccc(Cl)c1` (centres unmarked) [Example 17, 2-(1-methylpyrrolidin-2-yl)ethyl(3′-chloro-5-fluoro-[1,1′-biphenyl]-2-yl)carbamate], the “Inhibition” value in test [1] is 27.9 ± 6.1%. In addition, the Ki in test [2] is 1 nM.
With `Cc1ccc(NC(=O)OCCC2CCCN2C)c(-c2ccccc2)c1` (centres unmarked) [Example 26, 2-(1-methylpyrrolidin-2-yl)ethyl(5-methyl-[1,1′-biphenyl]-2-yl)carbamate], the “Inhibition” value in test [1] was 11.0 ± 2.5%. For the same compound, in test [2], the Ki came to 18.5 nM.
Regarding `CN1CCCC1CCOC(=O)Nc1ccc(F)cc1-c1ccc(Cl)c(Cl)c1` (centres unmarked) [Example 43, 2-(1-methylpyrrolidin-2-yl)ethyl(3′,4′-dichloro-5-fluoro-[1,1′-biphenyl]-2-yl)carbamate], the “Inhibition” value in test [1] came to 8.9 ± 2.3%. In test [2], the inhibition constant Ki worked out at 1.48 nM.
On to `O=C(Nc1ccccc1-c1ccccc1)OC[C@@H]1CCNC1` [Example 78, (R)-pyrrolidin-3-ylmethyl [1,1′-biphenyl]-2-ylcarbamate], for which the “Inhibition” value in test [1] came to 17.9 ± 2.1%. Also, the Ki in test [2] was 4.62 nM.
Regarding `CN1CC[C@H](COC(=O)Nc2ccc(F)cc2-c2ccccc2)C1` [Example 93, (S)-(1-methylpyrrolidin-3-yl)methyl (5-fluoro-[1,1′-biphenyl]-2-yl)carbamate], in test [1], the “Inhibition” value was found to be 27.3 ± 1.9%. For the same compound, in test [2], the Ki came to 4.12 nM.
`Cc1cccc(-c2ccccc2NC(=O)OC[C@H]2CCN(C)C2)c1` [Example 101, (S)-(1-methylpyrrolidin-3-yl)-methyl(3′-methyl-[1,1′-biphenyl]-2-yl)carbamate]: the “Inhibition” value in test [1] stood at 20.1 ± 1.7%. Besides, the Ki in test [2] came out at 3.79 nM.
On the same counts, the results for `CCN1CCC[C@H]1COC(=O)Nc1ccccc1-c1ccccc1` [Example 106, (S)-(1-ethylpyrrolidin-2-yl)methyl [1,1′-biphenyl]-2-ylcarbamate] are 32.7 ± 5.2% and 0.8 nM.
In the case of `CN1CC[C@H](COC(=O)Nc2ccc(F)cc2-c2cccc(F)c2)C1` [Example 108, (S)-(1-methylpyrrolidin-3-yl)-methyl(3′,5-difluoro-[1,1′-biphenyl]-2-yl)carbamate], the “Inhibition” value in test [1] is given as 18.1 ± 1.4%. Besides, the Ki in test [2] is 3.95 nM.
In the case of `CN1CCC[C@@H]1COC(=O)Nc1ccccc1-c1ccccc1` [Example 109, (R)-(1-methylpyrrolidin-2-yl)-methyl [1,1′-biphenyl]-2-ylcarbamate], the “Inhibition” value in test [1] was 18.1 ± 1.7%. Also, the Ki in test [2] is 5.33 nM.
For the compound `CC(C)N1CCC[C@H]1COC(=O)Nc1ccccc1-c1ccccc1` [Example 112, (S)-(1-isopropylpyrrolidin-2-yl)-methyl [1,1′-biphenyl]-2-ylcarbamate], in test [1], the “Inhibition” value is 34.8 ± 2.9%. Besides, in test [2], the Ki is 3.77 nM.
On the same counts, the results for `CN1CC[C@H](COC(=O)Nc2ccccc2-c2ccc(F)c(Cl)c2)C1` [Example 121, (S)-(1-methylpyrrolidin-3-yl)methyl(3′-chloro-4′-fluoro-[1,1′-biphenyl]-2-yl)carbamate] are 31.4 ± 6.1% and 1.75 nM.
Taken in the same sequence, the figures for `CN1CCC[C@H]1COC(=O)Nc1ccccc1-c1cccc(F)c1` [Example 160, (S)-(1-methylpyrrolidin-2-yl)methyl(3′-fluoro-[1,1′-biphenyl]-2-yl)carbamate] were 15.5 ± 2.4% and 4.29 nM.
With `CN1CCC[C@H]1COC(=O)Nc1ccccc1-c1cccc(Cl)c1` [Example 165, (S)-(1-methylpyrrolidin-2-yl)methyl(3′-chloro-[1,1′-biphenyl]-2-yl)carbamate], the “Inhibition” value in test [1] is listed as 34.5 ± 2.5%. Moreover, the inhibition constant Ki in test [2] was 0.63 nM.
As to `CN1CCC[C@H]1COC(=O)Nc1ccc(F)cc1-c1cc(F)cc(F)c1` [Example 172, (S)-(1-methylpyrrolidin-2-yl)methyl(3′,5,5′-trifluoro-[1,1′-biphenyl]-2-yl)carbamate], in test [1], the “Inhibition” value amounted to 12.4 ± 2.7%. Moreover, in test [2], the Ki worked out at 6.15 nM.
Taken in the same sequence, the figures for `CN1CCC[C@H]1COC(=O)Nc1ccc(F)cc1-c1ccc(Cl)c(Cl)c1` [Example 177, (S)-(1-methylpyrrolidin-2-yl)methyl (3′,4′-dichloro-5-fluoro-[1,1′-biphenyl]-2-yl)carbamate] were 11.3 ± 2.2% and 6.32 nM.
Take `CN1CCC[C@H]1COC(=O)Nc1ccc(F)cc1-c1cccc(C(F)(F)F)c1` [Example 180, (S)-(1-methylpyrrolidin-2-yl)methyl(5-fluoro-3′-(trifluoromethyl)-[1,1′-biphenyl]-2-yl)carbamate]: in test [1], the “Inhibition” value stood at 6.3 ± 1.3%. Moreover, in test [2], the Ki amounted to 9.15 nM.
On to `CN1CCC[C@H]1COC(=O)Nc1ccccc1-c1ccc(F)cc1F` [Example 188, (S)-(1-methylpyrrolidin-2-yl)methyl(2′,4′-difluoro-[1,1′-biphenyl]-2-yl)carbamate], for which the figures for the Ki in test [3] and in test [2] were 2.23 nM and 13.7 nM, respectively.
Turning to `CN1CCC[C@H]1COC(=O)Nc1ccccc1-c1cc(Cl)ccc1F` [Example 190, (S)-(1-methylpyrrolidin-2-yl)methyl(3′-chloro-6′-fluoro-[1,1′-biphenyl]-2-yl)carbamate], the inhibitory constant (Ki) turned out to be 0.95 nM in test [3] and 2.17 nM in test [2].
As for `Cc1cccc(-c2cc(F)ccc2NC(=O)OC[C@@H]2CCN(C)C2)c1` [Example 192, (R)-(1-methylpyrrolidin-3-yl)methyl(5-fluoro-3′-methyl-[1,1′-biphenyl]-2-yl)carbamate], the “Inhibition” value in test [1] worked out at 18.6 ± 3.6%. For the same compound, the Ki in test [2] came out at 4.6 nM.
Regarding `CCN1CC[C@@H](COC(=O)Nc2ccc(F)cc2-c2ccc(F)c(Cl)c2)C1` [Example 196, (R)-(1-ethylpyrrolidin-3-yl)methyl (3′-chloro-4′,5-difluoro-[1,1′-biphenyl]-2-yl)carbamate], the Ki is 1.54 nM in test [3] and 7.67 nM in test [2].
Take `CN1CCC[C@H]1COC(=O)Nc1ccc(F)cc1-c1ccc(F)c(Cl)c1` [Example 211, (S)-(1-methylpyrrolidin-2-yl)methyl(3′-chloro-4′,5-difluoro-[1,1′-biphenyl]-2-yl)carbamate]: the Ki in test [3] was 10 nM; in test [2], 9.91 nM.
For `COc1ccc(NC(=O)OC[C@@H]2CCCN2C)c(-c2cccc(Cl)c2)c1` [Example 224, (S)-(1-methylpyrrolidin-2-yl)methyl(3′-chloro-5-methoxy-[1,1′-biphenyl]-2-yl)carbamate], the Ki in test [3] is 7.5 nM; in test [2] it was 15.1 nM.
In the case of `COc1ccc(NC(=O)OC[C@@H]2CCCN2C)c(-c2cc(Cl)cc(Cl)c2)c1` [Example 226, (S)-(1-methylpyrrolidin-2-yl)methyl (3′,5′-dichloro-5-methoxy-[1,1′-biphenyl]-2-yl)carbamate], the Ki in test [3] was found to be 4.99 nM; in test [2] it was 16.7 nM.

The record behind these values is patent publication US9828339B2, “Biphenyl derivatives and methods for preparing same” (DONG-A ST CO., LTD, priority 2013, dated 2017).
